# Assays:
# [1] = system: patients with PD and constipation; test: Phase 2 trial Stage 2 (daily dosing): bowel function, stool related indices; format: in vivo, human; settings: for response rate: Stage 2 daily dosing
# Description: (2) Rome-IV Criteria for Constipation (7 criteria, with constipation diagnosis requiring two or more of the following: (i) straining during at least 25% of defecations, (ii) lumpy or hard stools in at least 25% of defecations, (iii) sensation of incomplete evacuation for at least 25% of defecations, (iv) sensation of anorectal obstruction/blockage for at least 25% of defecations; (v) manual maneuvers to facilitate at least 25% of defecations; (vi) fewer than 3 defecations per week; and (vii) loose stools are rarely present without the use of laxatives;
# (3) Constipation—Ease of Evacuation Scale (from 1-7, with 7=incontinent, 4=normal, and 1=manual disimpaction);
# (4) Bristol Stool Chart, which is a patient-friendly means of categorizing stool characteristics (assessment of stool consistency is a validated surrogate of intestinal motility) and Stool Diary;
# (14) Patient Assessment of Constipation Symptoms (PAC-SYM);
# (15) Patient Assessment of Constipation Quality of Life (PAC-QOL);
# In Stage 2, 34 patients were evaluated.
# The primary efficacy outcome variable was whether or not a subject was a “success” or “failure”. This is an endpoint based on subject diary entries for the “fixed dose” period prior to the endpoint assessment defined as average complete stool frequency increase by 1 or more over baseline, or 3 or more complete spontaneous stools/week. The subject was deemed a “success” if s/he met one or more of the criteria listed above, otherwise the subject was deemed a “failure”. The primary analysis was based on all subjects with a baseline assessment and an assessment at the end of the “fixed-dose” period and was a comparison of the proportion of successes with 0.10 (the null hypothesis corresponding to no treatment effect).
# The proportion of subjects for whom the drug was a success was estimated with a binomial point estimate and corresponding 95% confidence interval. A secondary analysis compared the proportions of subjects who are deemed a success at the end of the randomized fixed-dose period between those randomized to the squalamine (ENT-01) arm and those randomized to the placebo arm. A Fisher's exact test was used to compare the proportions of subjects who were deemed a success at the end of randomization period between the two randomized arms.
# [2] = system: C. elegans model of PD; settings: cited from earlier work
# [3] = Preclinical oral studies in dogs (bioavailability, tolerability)
# [4] = system: colons from WT (1 yr old FVB/NJ) mice; test: Isolated colon motility, WT mice; set-up: species or system mouse
# Description: FIGS. 14A-14B show additional effects of squalamine in mice.
# Parkinson's disease is associated with varying degrees of constipation, typically beginning decades before diagnosis, and all too often has a profound negative impact on quality of life. It is believed that the ENS in PD is damaged earlier but by the same processes that damage the neurons of the CNS. In our clinical experience oral administration to several individuals with advanced Parkinson's disease corrected long standing constipation within days of initiation of treatment. We explored whether the human experience could be reproduced in the mouse. In the experiments illustrated below studies of colonic motility were conducted using organs from WT (1 yr old FVB/NJ) or PD mice, in which the murine αSynuclein gene has been excised and replaced by several copies of the human αSynuclein gene driven by the normal murine promoter.
# The isolated colon from the PD strain presents a more sluggish peristaltic wave than that from the WT animal (black columns).
# [5] = system: Intrinsic primary afferent neurons (IPAN) of the jejunum; test: IPAN patch clamp, jejunum with intact luminal epithelium; set-up: species or system mouse; settings: lumen perfused with 30 μM squalamine; 5.5 before
# Procedure: Squalamine evoked bursts of action potential lasting for 10 to 30 min after application of a brief (20 ms) 50 μL puff of squalamine onto the epithelium.
# To determine the mechanism by which squalamine stimulated intestinal motility, electrophysiological studies were conducted on single neurons within the colon or jejunum of WT mice, using published methods. Intrinsic primary afferent neurons (IPAN) of the jejunum were patch clamped from the adventitial surface, while the lumen of the jejunum was perfused with either Krebs's buffer or buffer containing 30 μM squalamine. The IPANs are multipolar neurons that receive sensory information from the lumen and then communicate with other divisions within the ENS to influence peristalsis as well as direct information rostrally.
# In this experiment IPAN excitability was measured by stimulating the neuron with a single standard pulse, and counting the number of subsequent spontaneous discharges.
structure (smiles),measurement,setting,value
"CC(C)[C@@H](CC[C@@H](C)[C@H]1CC[C@H]2[C@@H]3[C@H](O)C[C@H]4C[C@@H](NCCCNCCCCN)CC[C@]4(C)[C@H]3CC[C@]12C)OS(=O)(=O)O (single isomer, unassigned; ent-01) [ENT-01]",Median efficacious dose,[1]; Stage 2,100 mg
same,"CSBM, Fixed dose (mean, SD)","[1]; Stage 2, Table 12, baseline 1.2 (0.90)",3.8
same,"PAQ-SYM, Fixed dose (Mean, SD)","[1]; Stage 2, Table 12, baseline 1.3 (0.45)",1.1
same,"PAQ-QOL, Fixed dose (Mean, SD)","[1]; Stage 2, Table 12, baseline 1.4 (0.49)",1.2
same,"Rescue meds, Fixed dose (Mean, SD)","[1]; Stage 2, Table 12, baseline 1.8 (1.92)",0.3
same,"SBM, Fixed dose (mean, SD)","[1]; Stage 2, Table 12, baseline 2.6 (1.45)",4.5
same,"Consistency, Fixed dose (mean, SD)","[1]; Stage 2, Table 12, baseline 2.7 (1.20)",4.1
same,"Ease, Fixed dose (Mean, SD)","[1]; Stage 2, Table 12, baseline 3.2 (0.73)",3.7
same,"PAC-SYM, Fixed dose (mean, SD)","[1]; Stage 2, dosed patients n = 34, baseline 1.3 (0.45)",1.1 (0.49)
same,"PAC-QOL total, Fixed dose (mean, SD)","[1]; Stage 2, dosed patients n = 34, baseline 1.4 (0.49)",1.2 (0.59)
same,"CSBM, Fixed dose (mean, SD)","[1]; Stage 2, dosed patients n = 34, weekly average, baseline 1.2 (0.90)",3.8 (2.40)
same,"Suppository use, Fixed dose (mean, SD)","[1]; Stage 2, dosed patients n = 34, weekly average, baseline 1.8 (1.92)",0.3 (0.67)
same,"SBM, Fixed dose (mean, SD)","[1]; Stage 2, dosed patients n = 34, weekly average, baseline 2.6 (1.45)",4.5 (2.21)
same,"Consistency, Fixed dose (mean, SD)","[1]; Stage 2, n = 34, Bristol stool scale 1-7, 1 = separate hard lumps, 7 = liquid consistency, baseline 2.7 (1.20)",4.1 (2.13)
same,"Ease of passage, Fixed dose (mean, SD)","[1]; Stage 2, n = 34, Ease of evacuation scale, 1-manual disimpaction, 7 = incontinent, baseline 3.2 (0.73)",3.7 (1.19)
same,"CSBM, Wash-out (Mean, SD)","[1]; Stage 2, wash-out period, baseline 1.2 (0.90)",1.8 (1.19)
same,"PAQ-SYM, Wash-out (Mean, SD)","[1]; Stage 2, wash-out period, baseline 1.3 (0.45)",1.1 (0.60)
same,"PAQ-QOL, Wash-out (Mean, SD)","[1]; Stage 2, wash-out period, baseline 1.4 (0.49)",1.2 (0.63)
same,"Rescue meds, Wash-out (Mean, SD)","[1]; Stage 2, wash-out period, baseline 1.8 (1.92)",1.0 (1.40)
same,"SBM, Wash-out (Mean, SD)","[1]; Stage 2, wash-out period, baseline 2.6 (1.45)",3.2 (1.80)
same,"Consistency, Wash-out (Mean, SD)","[1]; Stage 2, wash-out period, baseline 2.7 (1.20)",2.8 (1.39)
same,"Ease, Wash-out (Mean, SD)","[1]; Stage 2, wash-out period, baseline 3.2 (0.73)",3.3 (0.81)
same,response rate,[1]; 75 mg,26%
same,response rate,[1]; 250 mg,85.3%
same,Average CSBM/week,"[1]; at fixed dose, baseline 1.2",3.8
same,Use of rescue medication,"[1]; at fixed dose, baseline 1.8/week",0.3 /week
same,SBM,"[1]; at fixed dose, baseline 2.6",4.5
same,CSBM frequency,[1]; beyond the treatment period (wash-out),remained significantly above baseline value
same,Subjective indices of wellbeing (PAC-QOL),[1]; during treatment,improved
same,constipation symptoms (PAC-SYM),[1]; during treatment,improved
same,CSBM/week,"[1]; patients later randomized to Placebo (n = 9), Fixed dose period on drug, Baseline 1.6",3.3
same,"dose for a bowel response, mean",[1]; patients with baseline constipation of <1 CSBM/week,192 mg
same,"dose for a bowel response, mean",[1]; patients with ≥1 CSBM/week at baseline,120 mg
same,CSBM/week,"[1]; randomized cohort, Treatment (n = 6), Fixed dose, Baseline 0.8",3.2
same,CSBM/week,"[1]; randomized cohort, Treatment (n = 6), Randomized period",2.4
same,CSBM/week,"[1]; randomized cohort, Treatment (n = 6), Washout",0.9
same,"Consistency based on the Bristol stool scale, mean","[1]; treatment, from 2.7",4.1
same,ease of passage,"[1]; treatment, from 3.2",3.7
same,patients responding,[1]; within 75 mg to 250 mg,85%
same,formation of aggregates of αS,[2]; in vivo (Perni et al. 2017),inhibit the formation of aggregates
same,tolerability,[3],well tolerated
same,oral bioavailability,[3]; preclinical studies,about 0.1%
CC(C)[C@@H](CC[C@@H](C)[C@H]1CC[C@H]2[C@@H]3[C@H](O)C[C@H]4C[C@@H](NCCCNCCCCN)CC[C@]4(C)[C@H]3CC[C@]12C)OS(=O)(=O)O [squalamine],speed of the colonic peristaltic wave,"[4]; WT colon, FIG. 14B",stimulates the speed of the colonic peristaltic wave
same,force of peristaltic contractions,"[4]; WT colon, squalamine added to lumen, FIG. 14A",increases the force of contractions
same,colon migrating motor complex (MMC) peak pressure waves,"[4]; intraluminal application, legend of FIG. 14A",no apparent effect
same,MMC propagation velocity from oral to anal,"[4]; intraluminal application, legend of FIG. 14B",increased
same,number of discharges stimulated by a single electrical impulse (IPAN excitability),[5],8.8
same,muscle paralysis,[2]; C. elegans model of PD (Perni et al. 2017),complete reversal of muscle paralysis

# Source: US11083735B2, “Methods for treating sleep disorders, sleep disturbances, and related symptoms using aminosterol compositions” (Enterin, Inc., priority 2017, dated 2021)
